Marks after values point to notes of the source that are not given here.
System: Male ICR mice
Assay: Acetic acid-induced writhing test
Assay type: in vivo
Conditions: for Number of writhing: mean ± standard error
Procedure: As a representative animal experimental model widely used to confirm the analgesic effect on visceral pain, an acetic acid-induced writhing test is used [T. J. Ness, Models of Visceral Nociception (1999) ILAR Journal 40: 119-128]. At this time, acetic acid is a chemical that is a stimulus used to induce pain, and when it is injected into the abdominal cavity of the mouse, characteristic writhing pain behaviors are induced in which due to the inflammatory pain caused in the peritoneum the mouse stretches both the forelimbs and the hind legs, and touches the abdomen to the floor or twists. However, when a drug having an analgesic effect, such as morphine, is injected into a mouse, the writhing pain behaviors of the mouse is reduced. As such, the degree of decreasing the writhing pain behaviors is measured to confirm the analgesic effect of the drug.
Male ICR mice (body weight: 24 to 30 g) were used in this experiment. The experimental animals were maintained at a light-and-darkness cycle of 12 hours, a temperature of 22 to 25° C., a relative humidity of 40 to 60%, and free access to water and food. For stabilization of animal behavior, the experimental animals were allowed to acclimate to the laboratory conditions for at least 1 hour before the test.
As a vehicle serving as the negative control, 30% PEG400 (v/v) was used, and Test Compound was dissolved in the vehicle and administered orally at doses of 3, 10 and 30 mg/kg. Morphine which is the positive control was dissolved in saline and administered subcutaneously at a dose of 10 mg/kg. The final dose of solution was 10 ml/kg.
After 1 hour of oral administration of the vehicle and Test Compound or 30 minutes after subcutaneous administration of morphine, the mice were gently restrained, and 0.8% (v/v) acetic acid solution was administered intraperitoneally to the abdomen of the mice. The mice were immediately returned to the observation box, and the number of writhing pain behaviors of the mice for 10 minutes was recorded.
The effect of the compound was expressed as the mean±standard error, and statistical significance was recognized when data differed by p<0.05 using one-way ANOVA and Dunnett's test.

Row | SMILES | Suppression rate compared to negative control (3 mg/kg p.o.) [%] | Number of writhing (3 mg/kg p.o., 1 hour before i.p. 0.8% acetic acid) [writes/10 minutes] | Suppression rate compared to negative control (10 mg/kg p.o.) [%] | Number of writhing (10 mg/kg p.o., 1 hour before i.p. 0.8% acetic acid) | Suppression rate compared to negative control (30 mg/kg p.o.) [%] | Number of writhing (30 mg/kg p.o., 1 hour before i.p. 0.8% acetic acid) | Suppression rate compared to negative control (10 mg/kg s.c.) [%] | Number of writhing (10 mg/kg s.c., 30 minutes before i.p. 0.8% acetic acid) | Suppression rate compared to negative control (10 mg/kg s.c., listed as morphine) [%]
1 | NC(=O)O[C@@H](Cn1ncnn1)c1ccccc1Cl [Test Compound, Carbamic acid (R)-1-(2-chlorophenyl)-2-tetrazol-2-yl-ethyl ester] | 25.8 | 17.3 ± 2.6 | 66.1 | 7.9 ± 2.4^1) writes/10 minutes | 100 | 0.0 ± 0.0^1) writes/10 minutes | – | – | –
2 | CN1CC[C@]23c4c5ccc(O)c4O[C@H]2[C@@H](O)C=C[C@H]3[C@H]1C5 [Morphine, reference compound] | – | – | – | – | – | – | 98.2 | 0.4 ± 0.3^1) writes/10 minutes | 98.2

— patent publication US11666554B2, “Use of a carbamate compound to prevent, alleviate or treat visceralgia or pain arising from visceral disease” (SK BIOPHARMACEUTICALS CO., LTD., priority 2017, dated 2023)
